Source: US12539312B2, “Use of materials made of cross-linked β-cyclodextrins for the treatment of tuberculosis” (INSERM (INSTITUT NATIONAL DE LA SANTÉ ET DE LA RECHERCHE …, priority 2019, dated 2026)

Legend:
Mtb H37Rv = experiment: Lung mycobacterial load in Mtb-challenged mice (CFU counting); format: in vivo, Mycobacterium tuberculosis; settings: Booster co-loaded with ETH in pβCD
[1] = Phase solubility study, Booster; settings: 1:1 stoichiometry assumed; BDM43266 per FIG. 2B
[2] = Phase solubility study, ETH; settings: 1:1 stoichiometry assumed, from phase solubility diagram
BMDM = experiment: Apoptosis/necrosis assay (Annexin V and DNA intercalating dye); format: cell-based, murine; settings: 24 hours incubation

SMILES	boosting efficacy on ETH (Mtb H37Rv)	K1:1 (binding constant) in the case of Booster [1]	K1:1 (binding constant) in the case of ETH [2]	Annexin V / DNA intercalating dye staining (BMDM)
O=C(CCCC(F)(F)F)N1CCC(c2nc(-c3nccs3)no2)CC1 [BDM41906]	No difference was observed concerning the boosting efficacy between BDM41906 and BDM43266			
OC[C@H]1O[C@@H]2O[C@H]3[C@H](O)[C@@H](O)[C@@H](O[C@H]4[C@H](O)[C@@H](O)[C@@H](O[C@H]5[C@H](O)[C@@H](O)[C@@H](O[C@H]6[C@H](O)[C@@H](O)[C@@H](O[C@H]7[C@H](O)[C@@H](O)[C@@H](O[C@H]8[C@H](O)[C@@H](O)[C@@H](O[C@H]1[C@H](O)[C@H]2O)O[C@@H]8CO)O[C@@H]7CO)O[C@@H]6CO)O[C@@H]5CO)O[C@@H]4CO)O[C@@H]3CO [βCD, β-Cyclodextrin]		514	100	
OC[C@H]1O[C@@H]2O[C@H]3[C@H](O)[C@@H](O)[C@@H](O[C@H]4[C@H](O)[C@@H](O)[C@@H](O[C@H]5[C@H](O)[C@@H](O)[C@@H](O[C@H]6[C@H](O)[C@@H](O)[C@@H](O[C@H]7[C@H](O)[C@@H](O)[C@@H](O[C@H]1[C@H](O)[C@H]2O)O[C@@H]7CO)O[C@@H]6CO)O[C@@H]5CO)O[C@@H]4CO)O[C@@H]3CO [αCD, α-cyclodextrin]		100	24	
CN[C@@H]1C[C@H]2O[C@@](C)([C@@H]1OC)n1c3ccccc3c3c4c(c5c6ccccc6n2c5c31)C(=O)NC4 [staurosporine]				late apoptotic, double positive cells
OC[C@H]1O[C@@H]2O[C@H]3[C@H](O)[C@@H](O)[C@@H](O[C@H]4[C@H](O)[C@@H](O)[C@@H](O[C@H]5[C@H](O)[C@@H](O)[C@@H](O[C@H]6[C@H](O)[C@@H](O)[C@@H](O[C@H]7[C@H](O)[C@@H](O)[C@@H](O[C@H]8[C@H](O)[C@@H](O)[C@@H](O[C@H]9[C@H](O)[C@@H](O)[C@@H](O[C@H]1[C@H](O)[C@H]2O)O[C@@H]9CO)O[C@@H]8CO)O[C@@H]7CO)O[C@@H]6CO)O[C@@H]5CO)O[C@@H]4CO)O[C@@H]3CO [γCD, γ-cyclodextrin]		256	47	
